Biological target: JNK3 kinase (Homo sapiens, UniProt P53779)
Test: JNK3 SPA assay (phosphorylation of GST-c-Jun)
Type: biochemical
Settings: 3.33 μM ATP, GST-c-Jun substrate, 30 minutes at room temperature
Method: JNK1, JNK2, JNK3—SPA Assay
A typical assay for testing the activity of compounds to inhibit JNK1, JNK2 and JNK3 enzymes is as follows: • 1. Compound is dissolved in DMSO to a convenient concentration and this is diluted in 10% DMSO to a five times concentrate of the desired starting concentration (frequently 1:100). • 2. 10 μl of 500 mM EDTA is added to alternative wells of the Opti-plate row, which will receive kinase reaction plus DMSO. This creates the negative control. • 3. For the JNK2 and JNK3 assay, compounds are prepared in six 2-fold dilutions with water and each concentration is tested in duplicate. For the JNK1 assay compounds are prepared in four 5-fold dilutions with water which are tested in triplicate. Controls are treated identically. • 4. 20 μl per well of each compound concentration is transferred to an Opti-plate, in duplicate. • 5. 30 μl (JNK2/3 SPA) or 50 μl (JNK1 SPA) of substrate solution (25 mM HEPES pH 7.5, 10 mM magnesium acetate with 3.33 μM ATP (JNK2/3) or 2 μM ATP (JNK1), approximately 7.5 kBq [γ-33P] ATP, GST-c-Jun, in water) is added to each well. • 6. 50 μl (JNK2/3 SPA) or 30 μl (JNK1 SPA) of kinase solution (JNK in 25 mM HEPES pH 7.5, 10 mM Mg Acetate) is added to each well.
• 7. […] Plates are sealed and incubated for 30 minutes at room temperature, centrifuged for 10 minutes at 2500 g and counted. • 10. […]

Chain of JNK3 kinase (P53779 whole entry): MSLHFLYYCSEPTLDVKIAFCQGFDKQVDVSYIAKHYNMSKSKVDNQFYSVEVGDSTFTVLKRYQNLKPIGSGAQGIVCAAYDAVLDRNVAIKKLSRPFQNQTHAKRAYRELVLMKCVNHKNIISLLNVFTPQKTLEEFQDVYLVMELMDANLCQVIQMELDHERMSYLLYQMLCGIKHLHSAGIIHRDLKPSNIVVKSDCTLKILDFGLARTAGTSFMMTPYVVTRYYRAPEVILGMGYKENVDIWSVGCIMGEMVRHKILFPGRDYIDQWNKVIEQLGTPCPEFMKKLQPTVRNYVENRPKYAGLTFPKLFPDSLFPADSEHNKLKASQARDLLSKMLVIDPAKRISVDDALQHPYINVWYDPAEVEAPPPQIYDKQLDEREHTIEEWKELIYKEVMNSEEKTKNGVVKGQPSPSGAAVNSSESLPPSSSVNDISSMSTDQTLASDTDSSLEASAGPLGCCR

Row | SMILES | IC50 [nM]
1 | c1csc(-c2cnc3[nH]ccc3c2)c1 [Compound 2] | < 500
2 | CN(C)c1ccc(-c2cnc3[nH]ccc3c2)cc1 [Compound 1] | 1200

From patent US7291630B2, “Azaindoles as inhibitors of c-Jun N-terminal kinases” (Eisai Co., Ltd., priority 2002, dated 2007)
